Measurements published in PubChem BioAssay AID623861 (Sanford-Burnham Center for Chemical Genomics, 2012).
Activity calls are given as the source filed them.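 Rule for the calls: active = compounds whose EC50 for boosting single-cell stem cell survival is at or below a set limit; inactive = the rest.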

Each molecule was assayed on human iPSC single-cell survival, ATP luminescence (assay: enhancers of single-cell hiPSC survival, dose response, luminescence (AID 623861)).
In the case of `COC(=O)C1=C(C)N(C)C(C)=C(C(=O)OC)C1c1cccc(Br)c1`, the EC50 is reported as > 80 µM (inactive). In the case of `CCCNC(=O)COC(=O)c1ccccc1C(=O)c1ccc(Cl)c([N+](=O)[O-])c1`, the EC50 is reported as 47.1 µM (inactive). `CN(C)c1ccc(-c2ccnc3c2CC(C)(C(=O)Nc2ccc(Cl)c(C(F)(F)F)c2)O3)cc1` (stereo not drawn) was tested, and the EC50 was > 80 µM (inactive). `CN(C(=O)COC(=O)c1nc(Cl)c(Cl)c(Cl)c1Cl)C1CCS(=O)(=O)C1` (stereo not drawn) was tested, and the EC50 was 31.1 µM (inactive). With `OC(c1ccc(Cl)cc1)c1ncc(-c2cccc(C(F)(F)F)c2)[nH]1` (stereo not drawn) the EC50 was > 80 µM (inactive). In the case of `CCCCCCn1c(SCCN2CCOCC2)nc2c1c(=O)[nH]c(=O)n2C`, the EC50 is reported as > 80 µM (inactive). `COc1c(Cl)cnn(-c2ccc(C)cc2)c1=O` was tested, and the EC50 was > 80 µM (inactive). `COCCNC(=O)c1ccc(-c2cn[nH]c2)c2ccoc12` was tested, and the EC50 was 11.2 µM. In the case of `NC(=O)c1ccc(Nc2nc(C(N)c3ccccc3Cl)cs2)cc1` (stereo not drawn), the EC50 is reported as 39.7 µM (inactive). For `Cn1c(Cl)c(/C=N/OC(=O)c2ccc(Cl)cc2)c2ccccc21`, the EC50 was > 80 µM (inactive). For `O=c1cc(-c2ccccc2)nc2nc(SCc3ccccc3)[nH]n12`, the EC50 was > 80 µM (inactive). `COc1ccc(S(=O)(=O)Nc2ccc3c(c2)C(=O)N([C@H](C)CO)C[C@H](C)[C@@H](CN(C)C(=O)NC2CCCCC2)O3)cc1` was tested, and the EC50 was > 80 µM (inactive). For `CCSc1cnn(-c2ccccc2)c(=O)c1Cl`, the EC50 was > 80 µM (inactive). For `Cc1cc(C)c2nc(N3CCN(C)CC3)c(C#N)cc2c1`, the EC50 was > 80 µM (inactive). `COc1ccc2c(c1)c(=O)c(C(=O)c1ccc(Cl)cc1)cn2CC(=O)Nc1ccc(F)cc1` was tested, and the EC50 was 15.6 µM. `c1ccc(CN2CCN(c3nc(NCc4ccco4)c4ccccc4n3)CC2)cc1` was tested, and the EC50 was 1.05 µM. With `Cc1ccsc1C(=O)OCC(=O)Nc1sccc1C(N)=O` the EC50 was > 80 µM (inactive). Work on `CN1C2CCC1/C(=C/c1ccccn1)C(=O)/C2=C\c1ccccn1` yielded an EC50 of 6.32 µM. Molecule `CCC(C(=O)Nc1ccc2[nH]ncc2c1)c1ccccc1` (stereo not drawn) has an EC50 of 9.45 µM. For `O=C(Nc1cccnc1Cl)c1cccnc1Cl`, the EC50 was > 80 µM (inactive). `O=S(=O)(c1cccc2cnccc12)N1CCNCC1` gave an EC50 of 2.89 µM. `Cc1c(C(=O)OCC(=O)Nc2ccc(C(N)=O)cc2)cccc1[N+](=O)[O-]` was tested, and the EC50 was 60.8 µM (inactive). With `CCN1C/C(=C/c2cccc([N+](=O)[O-])c2)C(=O)/C(=C/c2cccc([N+](=O)[O-])c2)C1` the EC50 was 9.01 µM. With `CCCSc1nc(N2CCOCC2)c2c(c1C#N)CC(C)(C)SC2` the EC50 was 25.6 µM (inactive). With `Cc1ccc(-n2nc(C)c3c(C)cc(=O)[nH]c32)cc1` the EC50 was > 80 µM (inactive). In the case of `Cn1nc(-c2ccccc2)c(C(O)c2ccccc2C(F)(F)F)c1Cl` (stereo not drawn), the EC50 is reported as > 80 µM (inactive). With `Oc1ccc(-c2onc(C(F)(F)F)c2-c2cscn2)c(O)c1` the EC50 was > 80 µM (inactive). In the case of `O=C(CNC(=O)c1ccccc1)OC(C(=O)Nc1cc(C(F)(F)F)ccc1Cl)c1ccccc1` (stereo not drawn), the EC50 is reported as > 80 µM (inactive). For `CC(OC(=O)c1cccc(S(=O)(=O)N2CCN(C)CC2)c1)C(=O)Nc1ccc(C(N)=O)cc1` (stereo not drawn), the EC50 was 30.6 µM (inactive). With `O=C(O)c1ccccc1C(=O)NCC(O)COCC1CC=CCC1` (stereo not drawn) the EC50 was > 80 µM (inactive). With `C=C1[C@@H](C)[C@H]2[C@H](Cc3ccccc3)NC(=O)[C@]23OC(=O)/C=C/[C@H](O)CCC[C@@H](C)C/C=C/[C@H]3[C@@H]1O` the EC50 was 21.7 µM (inactive). Molecule `CCCCCCC[C@@H](C/C=C/CCC(=O)N(C)C/C(=C/Cl)C/C(=C\C(=O)N1CC(OC)=CC1=O)OC)OC` has an EC50 of 1.11 µM. For `CN(CCOc1ccc(-c2ccn(S(=O)(=O)c3c(Cl)cccc3Cl)n2)cc1)c1ccccn1`, the EC50 was > 80 µM (inactive). With `CN(C)CCN(C(=O)c1ccc2ccccc2c1)c1nc2cc3c(cc2s1)OCO3` the EC50 was > 80 µM (inactive). For `O=C(Cc1ccc(Br)cc1)Nc1ccc2[nH]ncc2c1`, the EC50 was 25.2 µM (inactive). In the case of `CCCCc1cc(=O)oc2cc(OCc3cc(OC)c(OC)c(OC)c3)c(Cl)cc12`, the EC50 is reported as > 80 µM (inactive). `O=C(Nc1ccncc1)c1ccccc1[N+](=O)[O-]` was tested, and the EC50 was 52.6 µM (inactive). `COc1ccc(N2C(=O)CC(Sc3nccc(C)n3)C2=O)c(OC)c1` (stereo not drawn) was tested, and the EC50 was > 80 µM (inactive).
